From publication PMC6586855, “Orobol, an Enzyme-Convertible Product of Genistein, exerts Anti-Obesity Effects by Targeting Casein Kinase 1 Epsilon” (Scientific Reports, 2019)

How the values were obtained:
MUSK = molecular target: T1, MUSK (Homo sapiens, UniProt O15146); experiment: […]-ATP kinase assay, P81 filter binding; type: biochemical
T1 construct: Reaction Biology kinase panel
T1 sequence (O15146 517-869 limits assumed): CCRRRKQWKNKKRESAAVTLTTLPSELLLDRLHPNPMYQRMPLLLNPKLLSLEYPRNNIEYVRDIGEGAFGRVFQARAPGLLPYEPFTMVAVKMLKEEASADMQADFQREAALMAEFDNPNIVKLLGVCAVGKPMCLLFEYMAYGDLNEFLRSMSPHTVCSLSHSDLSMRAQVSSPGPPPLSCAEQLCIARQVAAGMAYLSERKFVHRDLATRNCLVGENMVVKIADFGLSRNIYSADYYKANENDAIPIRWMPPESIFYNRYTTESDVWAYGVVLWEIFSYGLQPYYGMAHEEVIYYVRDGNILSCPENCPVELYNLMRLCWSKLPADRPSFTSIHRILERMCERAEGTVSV

CK1ε [1] = molecular target: T2, CK1ε (Homo sapiens, UniProt P49674); experiment: […]-ATP kinase assay, P81 filter binding; type: biochemical
T2 construct: gene CSNK1E; commercial active kinase; Reaction Biology panel for activity, SignalChem protein for pull-down

PI3Kγ = molecular target: T3, PI3Kγ (Homo sapiens, UniProt P48736); experiment: kinase inhibition assay; type: biochemical
T3 construct: gene PIK3CG; commercial kinase
Text: kinase inhibition assay on PI3Kγ

KHS/MAP4K5 = molecular target: T4, KHS/MAP4K5 (Homo sapiens, UniProt Q9Y4K4); experiment: […]-ATP kinase assay, P81 filter binding; type: biochemical
T4 construct: Reaction Biology kinase panel

PI3Kβ = molecular target: T5, PI3Kβ (Homo sapiens, UniProt P42338); experiment: kinase inhibition assay; type: biochemical
T5 construct: gene PIK3CB; commercial kinase; with Phosphatidylinositol 3-kinase regulatory subunit alpha
Text: kinase inhibition assay on PI3Kβ

PI3Kα = molecular target: T6, PI3Kα (Homo sapiens, UniProt P42336); experiment: kinase inhibition assay; type: biochemical
T6 construct: gene PIK3CA; commercial kinase; with Phosphatidylinositol 3-kinase regulatory subunit alpha
Text: kinase inhibition assay on PI3Kα

PBK/TOPK = molecular target: T7, PBK/TOPK (Homo sapiens, UniProt Q96KB5); experiment: […]-ATP kinase assay, P81 filter binding; type: biochemical
T7 construct: Reaction Biology kinase panel
T7 sequence (Q96KB5 1-322): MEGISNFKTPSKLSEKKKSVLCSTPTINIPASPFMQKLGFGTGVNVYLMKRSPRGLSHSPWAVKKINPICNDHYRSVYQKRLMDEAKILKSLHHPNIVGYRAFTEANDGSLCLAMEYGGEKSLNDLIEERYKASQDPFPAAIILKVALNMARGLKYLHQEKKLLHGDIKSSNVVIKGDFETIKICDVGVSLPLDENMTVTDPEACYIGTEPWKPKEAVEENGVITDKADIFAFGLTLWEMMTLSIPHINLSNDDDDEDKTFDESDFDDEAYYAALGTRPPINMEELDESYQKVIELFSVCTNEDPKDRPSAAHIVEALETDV

KDR/VEGFR2 = molecular target: T8, KDR/VEGFR2 (Homo sapiens, UniProt P35968); experiment: […]-ATP kinase assay, P81 filter binding; type: biochemical
T8 construct: Reaction Biology kinase panel

MNK1 = molecular target: T9, MNK1 (Homo sapiens, UniProt Q9BUB5); experiment: […]-ATP kinase assay, P81 filter binding; type: biochemical
T9 construct: gene MKNK1; Reaction Biology kinase panel

NEK6 = molecular target: T10, NEK6 (Homo sapiens, UniProt Q9HC98); experiment: […]-ATP kinase assay, P81 filter binding; type: biochemical
T10 construct: Reaction Biology kinase panel

TNIK = molecular target: T11, TNIK (Homo sapiens, UniProt Q9UKE5); experiment: […]-ATP kinase assay, P81 filter binding; type: biochemical
T11 construct: Reaction Biology kinase panel

CK1ε [2] = molecular target: T2, CK1ε; experiment: pull-down on orobol-Sepharose 4B beads, immunoblot; type: binding; conditions: orobol coupled to beads; pH 7.5, 4 °C; competed by ATP
CDK5/p25 = molecular target: T12, CDK5/p25 (Homo sapiens, UniProt Q00535); experiment: […]-ATP kinase assay, P81 filter binding; type: biochemical
T12 construct: Reaction Biology kinase panel; complex with p25, the C-terminal fragment of p35

PI3Kδ = molecular target: T13, PI3Kδ (Homo sapiens, UniProt O00329); experiment: kinase inhibition assay; type: biochemical
T13 construct: gene PIK3CD; commercial kinase; with Phosphatidylinositol 3-kinase regulatory subunit alpha
Text: kinase inhibition assay on PI3Kδ

CK1ε [3] = molecular target: T14, CK1ε (Mus musculus, UniProt Q9JMK2); experiment: pull-down from 3T3-L1 lysate on orobol-Sepharose 4B beads, immunoblot; type: biochemical; conditions: orobol coupled to beads; pH 7.5, 4 °C
T14 construct: gene Csnk1e; endogenous protein in 3T3-L1 preadipocyte lysate, detected with anti-CK1ε antibody
T14 sequence (Q9JMK2 1-416): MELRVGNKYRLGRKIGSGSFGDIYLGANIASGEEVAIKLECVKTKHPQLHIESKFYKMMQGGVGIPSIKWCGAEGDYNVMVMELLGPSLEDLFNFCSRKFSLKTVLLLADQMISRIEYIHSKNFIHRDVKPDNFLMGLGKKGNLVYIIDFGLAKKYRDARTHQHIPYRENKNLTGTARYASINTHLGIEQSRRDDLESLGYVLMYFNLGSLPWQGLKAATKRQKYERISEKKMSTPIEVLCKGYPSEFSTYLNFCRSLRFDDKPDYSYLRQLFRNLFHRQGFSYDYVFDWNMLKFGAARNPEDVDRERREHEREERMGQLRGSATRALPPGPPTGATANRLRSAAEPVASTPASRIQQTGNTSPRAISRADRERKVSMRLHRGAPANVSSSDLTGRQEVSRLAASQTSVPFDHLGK

RON/MST1R = molecular target: T15, RON/MST1R (Homo sapiens, UniProt Q04912); experiment: […]-ATP kinase assay, P81 filter binding; type: biochemical
T15 construct: Reaction Biology kinase panel
T15 sequence (Q04912 979-1400 limits assumed): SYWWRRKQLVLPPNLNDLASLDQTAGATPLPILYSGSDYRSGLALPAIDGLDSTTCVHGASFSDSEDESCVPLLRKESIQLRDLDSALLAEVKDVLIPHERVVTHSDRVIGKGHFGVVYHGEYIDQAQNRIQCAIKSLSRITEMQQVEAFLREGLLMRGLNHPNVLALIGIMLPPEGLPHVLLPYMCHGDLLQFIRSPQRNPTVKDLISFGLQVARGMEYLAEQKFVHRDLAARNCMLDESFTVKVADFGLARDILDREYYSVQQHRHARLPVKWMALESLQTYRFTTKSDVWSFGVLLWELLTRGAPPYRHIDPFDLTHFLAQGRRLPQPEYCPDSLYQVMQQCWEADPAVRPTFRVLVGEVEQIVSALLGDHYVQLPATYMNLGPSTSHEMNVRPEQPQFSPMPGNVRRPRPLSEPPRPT

T2 sequence (P49674 whole entry): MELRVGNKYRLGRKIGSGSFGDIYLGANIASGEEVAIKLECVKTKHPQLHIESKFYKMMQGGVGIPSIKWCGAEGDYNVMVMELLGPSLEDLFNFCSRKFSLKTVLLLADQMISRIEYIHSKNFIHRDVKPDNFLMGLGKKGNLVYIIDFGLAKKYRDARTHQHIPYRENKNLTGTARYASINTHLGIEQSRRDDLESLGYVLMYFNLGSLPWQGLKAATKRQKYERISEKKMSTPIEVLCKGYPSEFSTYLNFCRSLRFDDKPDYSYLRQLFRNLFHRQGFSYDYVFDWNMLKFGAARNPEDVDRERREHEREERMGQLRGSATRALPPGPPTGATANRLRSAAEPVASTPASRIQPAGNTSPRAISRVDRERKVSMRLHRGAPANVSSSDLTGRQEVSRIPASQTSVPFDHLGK
T4 sequence (Q9Y4K4 whole entry): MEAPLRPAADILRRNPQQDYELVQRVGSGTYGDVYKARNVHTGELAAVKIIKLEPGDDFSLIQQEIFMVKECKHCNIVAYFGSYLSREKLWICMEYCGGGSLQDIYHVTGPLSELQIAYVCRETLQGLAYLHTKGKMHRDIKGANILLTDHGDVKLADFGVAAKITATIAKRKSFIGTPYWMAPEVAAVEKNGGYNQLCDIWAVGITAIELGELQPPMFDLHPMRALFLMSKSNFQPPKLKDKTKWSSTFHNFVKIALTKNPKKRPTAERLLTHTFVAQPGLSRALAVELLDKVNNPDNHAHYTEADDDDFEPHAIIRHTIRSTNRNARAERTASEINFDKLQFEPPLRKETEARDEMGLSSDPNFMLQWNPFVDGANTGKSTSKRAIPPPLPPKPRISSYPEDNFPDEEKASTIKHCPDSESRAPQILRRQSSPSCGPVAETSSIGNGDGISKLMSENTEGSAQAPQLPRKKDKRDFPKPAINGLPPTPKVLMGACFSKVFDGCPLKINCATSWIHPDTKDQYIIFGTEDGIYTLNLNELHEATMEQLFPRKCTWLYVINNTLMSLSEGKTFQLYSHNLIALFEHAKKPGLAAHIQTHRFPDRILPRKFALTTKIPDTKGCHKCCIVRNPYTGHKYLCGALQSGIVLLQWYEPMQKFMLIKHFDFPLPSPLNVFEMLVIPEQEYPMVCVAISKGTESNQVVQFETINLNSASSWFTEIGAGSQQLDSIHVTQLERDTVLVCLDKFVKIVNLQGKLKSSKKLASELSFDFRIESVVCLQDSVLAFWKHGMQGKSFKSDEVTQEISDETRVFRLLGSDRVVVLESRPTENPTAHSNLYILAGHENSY
T13 sequence (O00329 whole entry): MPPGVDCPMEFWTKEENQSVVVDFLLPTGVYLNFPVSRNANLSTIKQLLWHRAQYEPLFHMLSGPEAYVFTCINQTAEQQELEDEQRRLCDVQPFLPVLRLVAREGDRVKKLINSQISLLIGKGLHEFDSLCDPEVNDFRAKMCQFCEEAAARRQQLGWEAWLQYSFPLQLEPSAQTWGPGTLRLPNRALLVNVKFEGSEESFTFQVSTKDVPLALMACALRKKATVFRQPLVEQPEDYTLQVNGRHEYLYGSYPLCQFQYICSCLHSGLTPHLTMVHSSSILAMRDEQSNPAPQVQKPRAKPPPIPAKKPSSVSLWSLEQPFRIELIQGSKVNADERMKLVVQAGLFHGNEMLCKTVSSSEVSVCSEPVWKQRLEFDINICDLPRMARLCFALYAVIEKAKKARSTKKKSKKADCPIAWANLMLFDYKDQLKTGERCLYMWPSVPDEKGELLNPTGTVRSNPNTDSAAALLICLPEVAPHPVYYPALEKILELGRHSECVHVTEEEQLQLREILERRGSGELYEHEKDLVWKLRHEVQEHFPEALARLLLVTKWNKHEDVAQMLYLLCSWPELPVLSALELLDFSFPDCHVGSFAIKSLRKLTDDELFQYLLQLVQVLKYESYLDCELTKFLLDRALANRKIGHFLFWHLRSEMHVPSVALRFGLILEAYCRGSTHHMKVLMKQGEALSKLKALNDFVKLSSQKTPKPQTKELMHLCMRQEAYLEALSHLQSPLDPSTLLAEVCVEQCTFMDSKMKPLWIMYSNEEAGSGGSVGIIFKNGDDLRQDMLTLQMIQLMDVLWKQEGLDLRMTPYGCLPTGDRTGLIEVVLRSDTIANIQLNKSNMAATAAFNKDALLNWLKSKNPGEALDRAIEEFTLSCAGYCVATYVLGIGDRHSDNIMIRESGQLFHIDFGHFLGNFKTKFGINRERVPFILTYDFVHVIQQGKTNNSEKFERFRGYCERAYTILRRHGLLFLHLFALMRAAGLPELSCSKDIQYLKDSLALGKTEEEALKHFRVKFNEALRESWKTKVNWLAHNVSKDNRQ
T13 sequence (P27986 2-724 partner): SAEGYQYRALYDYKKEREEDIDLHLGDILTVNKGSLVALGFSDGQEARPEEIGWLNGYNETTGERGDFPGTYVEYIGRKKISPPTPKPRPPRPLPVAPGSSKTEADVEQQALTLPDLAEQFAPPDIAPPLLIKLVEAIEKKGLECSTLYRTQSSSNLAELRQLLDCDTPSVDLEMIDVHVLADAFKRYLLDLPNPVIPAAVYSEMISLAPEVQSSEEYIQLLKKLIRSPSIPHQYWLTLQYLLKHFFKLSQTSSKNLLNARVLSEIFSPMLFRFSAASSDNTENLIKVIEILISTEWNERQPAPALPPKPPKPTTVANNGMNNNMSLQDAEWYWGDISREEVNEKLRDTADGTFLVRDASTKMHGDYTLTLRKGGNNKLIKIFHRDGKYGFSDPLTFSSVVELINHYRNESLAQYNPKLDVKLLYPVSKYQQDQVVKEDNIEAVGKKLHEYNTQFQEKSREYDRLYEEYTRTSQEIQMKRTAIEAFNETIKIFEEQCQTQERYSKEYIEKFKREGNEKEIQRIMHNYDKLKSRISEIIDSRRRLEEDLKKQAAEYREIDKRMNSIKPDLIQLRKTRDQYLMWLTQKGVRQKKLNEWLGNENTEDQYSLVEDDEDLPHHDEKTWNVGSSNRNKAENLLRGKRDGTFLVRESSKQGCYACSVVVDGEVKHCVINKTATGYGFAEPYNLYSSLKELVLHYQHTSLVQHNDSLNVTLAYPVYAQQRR
T11 sequence (Q9UKE5 whole entry): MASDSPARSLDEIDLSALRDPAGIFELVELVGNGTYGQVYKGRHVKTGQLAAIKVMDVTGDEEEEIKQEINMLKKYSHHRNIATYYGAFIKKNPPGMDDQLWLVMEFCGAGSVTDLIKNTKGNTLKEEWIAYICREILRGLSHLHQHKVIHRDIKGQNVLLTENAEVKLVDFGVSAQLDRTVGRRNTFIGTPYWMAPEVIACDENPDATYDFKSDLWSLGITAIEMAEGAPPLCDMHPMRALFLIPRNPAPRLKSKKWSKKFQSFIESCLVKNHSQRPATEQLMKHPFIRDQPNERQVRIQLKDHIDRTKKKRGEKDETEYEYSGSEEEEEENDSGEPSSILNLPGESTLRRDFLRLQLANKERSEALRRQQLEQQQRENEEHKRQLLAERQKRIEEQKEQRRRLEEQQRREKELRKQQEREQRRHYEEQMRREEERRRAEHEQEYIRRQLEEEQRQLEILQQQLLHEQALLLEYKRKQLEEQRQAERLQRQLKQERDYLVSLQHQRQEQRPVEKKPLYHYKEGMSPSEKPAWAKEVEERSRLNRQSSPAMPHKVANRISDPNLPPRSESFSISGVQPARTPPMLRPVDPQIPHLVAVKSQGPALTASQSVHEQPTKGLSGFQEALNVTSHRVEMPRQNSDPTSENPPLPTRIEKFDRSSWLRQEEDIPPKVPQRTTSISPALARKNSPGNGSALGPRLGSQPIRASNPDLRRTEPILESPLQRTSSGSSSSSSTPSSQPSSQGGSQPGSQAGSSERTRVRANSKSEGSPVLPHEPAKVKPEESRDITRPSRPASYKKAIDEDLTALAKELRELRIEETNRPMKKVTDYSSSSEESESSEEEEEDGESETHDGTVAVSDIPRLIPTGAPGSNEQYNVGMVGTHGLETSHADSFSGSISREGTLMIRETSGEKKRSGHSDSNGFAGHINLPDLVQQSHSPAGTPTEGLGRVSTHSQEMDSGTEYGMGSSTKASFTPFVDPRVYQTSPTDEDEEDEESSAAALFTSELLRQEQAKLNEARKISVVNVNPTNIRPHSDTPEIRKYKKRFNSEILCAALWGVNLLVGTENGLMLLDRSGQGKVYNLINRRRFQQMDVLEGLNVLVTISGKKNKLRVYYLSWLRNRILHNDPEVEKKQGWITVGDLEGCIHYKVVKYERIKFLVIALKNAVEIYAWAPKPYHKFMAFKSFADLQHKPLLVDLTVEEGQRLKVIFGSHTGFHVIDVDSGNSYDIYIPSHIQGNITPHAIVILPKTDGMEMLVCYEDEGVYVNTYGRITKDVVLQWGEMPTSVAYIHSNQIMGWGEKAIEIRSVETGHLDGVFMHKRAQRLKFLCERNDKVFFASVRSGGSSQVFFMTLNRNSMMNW
T9 sequence (Q9BUB5 whole entry): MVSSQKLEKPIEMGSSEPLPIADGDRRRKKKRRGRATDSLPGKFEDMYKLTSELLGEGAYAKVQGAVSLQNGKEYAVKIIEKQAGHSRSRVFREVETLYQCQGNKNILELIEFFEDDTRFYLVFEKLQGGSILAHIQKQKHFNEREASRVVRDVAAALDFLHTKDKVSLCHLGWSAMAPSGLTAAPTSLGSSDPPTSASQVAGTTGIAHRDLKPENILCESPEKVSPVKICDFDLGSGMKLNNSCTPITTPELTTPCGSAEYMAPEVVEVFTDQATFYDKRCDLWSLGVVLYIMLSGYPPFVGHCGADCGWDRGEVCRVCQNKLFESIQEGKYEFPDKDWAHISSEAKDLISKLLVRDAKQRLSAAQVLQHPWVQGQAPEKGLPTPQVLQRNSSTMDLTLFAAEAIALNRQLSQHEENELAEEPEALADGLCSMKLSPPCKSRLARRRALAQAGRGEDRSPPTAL

IC50 (MUSK): 1480 nM
IC50 (CK1ε [1]): 1240 nM
IC50 (PI3Kγ): 4760 nM
IC50 (KHS/MAP4K5): 1420 nM
IC50 (PI3Kβ): 5440 nM
IC50 (PI3Kα): 3460 nM
IC50 (PBK/TOPK): 1670 nM
IC50 (KDR/VEGFR2): 4450 nM
IC50 (MNK1): 2130 nM
activity at 1 µM (NEK6): 79%
IC50 (TNIK): 1540 nM
activity at 1 µM (CDK5/p25): 78%
IC50 (PI3Kδ): 5270 nM
activity at 1 µM (RON/MST1R): 78%
SMILES: O=c1c(-c2ccc(O)c(O)c2)coc2cc(O)cc(O)c12 [orobol]
pull-down on orobol-Sepharose 4B beads, immunoblot (CK1ε [2]): The CK1ε kinase bound to orobol–sepharose 4B beads, but not to control sepharose 4B beads
pull-down from 3T3-L1 lysate on orobol-Sepharose 4B beads, immunoblot (CK1ε [3]): Orobol directly interacts with CK1ε in 3T3-L1 cell lysates
